Measured values from ChEMBL document CHEMBL1146860, “Bicyclo[3.1.0]hexyl urea melanin concentrating hormone (MCH) receptor-1 antagonists: impacting hERG liability via aryl modifications” (Bioorg Med Chem Lett, 2006).

Columns and labels:
[1] = biological target: Voltage-gated inwardly rectifying potassium channel KCNH2 (Homo sapiens, UniProt Q12809); experiment: Inhibition of hERG channel by voltage clamp assay; format: toxicity
[2] = biological target: hERG (Homo sapiens, UniProt Q12809); experiment: Inhibition of hERG channel by rubidium efflux assay at 5 ug/ml; format: toxicity
Chain of hERG (Q12809 whole entry): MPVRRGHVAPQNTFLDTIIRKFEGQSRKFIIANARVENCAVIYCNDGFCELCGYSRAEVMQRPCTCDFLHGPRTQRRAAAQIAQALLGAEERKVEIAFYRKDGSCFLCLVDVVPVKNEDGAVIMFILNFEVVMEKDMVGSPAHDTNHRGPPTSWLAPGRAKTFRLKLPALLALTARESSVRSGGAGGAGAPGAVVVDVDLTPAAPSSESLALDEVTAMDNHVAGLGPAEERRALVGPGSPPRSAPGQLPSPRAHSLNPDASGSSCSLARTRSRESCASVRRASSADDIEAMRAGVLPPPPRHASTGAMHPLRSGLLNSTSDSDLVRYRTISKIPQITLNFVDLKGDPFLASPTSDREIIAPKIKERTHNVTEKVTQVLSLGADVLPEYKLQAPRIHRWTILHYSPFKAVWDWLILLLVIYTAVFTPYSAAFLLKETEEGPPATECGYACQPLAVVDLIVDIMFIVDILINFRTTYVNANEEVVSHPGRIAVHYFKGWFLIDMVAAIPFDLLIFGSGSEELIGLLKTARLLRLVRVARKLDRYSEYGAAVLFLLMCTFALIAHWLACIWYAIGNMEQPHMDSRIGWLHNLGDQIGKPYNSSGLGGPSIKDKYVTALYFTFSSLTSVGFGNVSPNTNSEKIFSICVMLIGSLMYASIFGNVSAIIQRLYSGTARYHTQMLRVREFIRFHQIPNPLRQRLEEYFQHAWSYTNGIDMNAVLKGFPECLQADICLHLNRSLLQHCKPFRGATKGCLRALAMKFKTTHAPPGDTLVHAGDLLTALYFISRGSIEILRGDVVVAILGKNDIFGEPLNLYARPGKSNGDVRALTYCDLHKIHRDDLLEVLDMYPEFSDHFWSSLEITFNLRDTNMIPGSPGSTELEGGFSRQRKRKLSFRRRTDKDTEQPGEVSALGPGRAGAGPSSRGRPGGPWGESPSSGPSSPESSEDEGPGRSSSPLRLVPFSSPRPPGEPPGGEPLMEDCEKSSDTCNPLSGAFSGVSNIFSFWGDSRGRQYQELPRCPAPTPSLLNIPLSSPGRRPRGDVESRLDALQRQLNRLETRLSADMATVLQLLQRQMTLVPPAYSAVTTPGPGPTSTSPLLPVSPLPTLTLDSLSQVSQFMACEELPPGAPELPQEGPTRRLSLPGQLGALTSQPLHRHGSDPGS

[3] = biological target: Melanin-concentrating hormone receptor 1 (Homo sapiens, UniProt Q99705); experiment: Binding affinity to MCHR1
Chain of Melanin-concentrating hormone receptor 1 (Q99705 whole entry): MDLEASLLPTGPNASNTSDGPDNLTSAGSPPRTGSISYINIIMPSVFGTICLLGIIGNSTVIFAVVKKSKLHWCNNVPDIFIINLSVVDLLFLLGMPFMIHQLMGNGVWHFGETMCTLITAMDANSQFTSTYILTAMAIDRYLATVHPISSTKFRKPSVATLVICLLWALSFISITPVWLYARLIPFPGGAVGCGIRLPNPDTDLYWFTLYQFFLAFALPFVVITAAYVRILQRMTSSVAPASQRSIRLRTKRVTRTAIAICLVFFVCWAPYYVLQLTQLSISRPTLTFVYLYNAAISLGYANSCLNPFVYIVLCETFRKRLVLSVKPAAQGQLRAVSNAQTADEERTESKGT

[4] = AUC (0-6h) in rat at 10 mg/kg, po; format: ADME, organism-based; parameters: time < 6 hr, dose 10 mg/kg, route oral; details: plasma

Chain of Voltage-gated inwardly rectifying potassium channel KCNH2 (Q12809 whole entry): as the sequence (Q12809 whole entry) above

| Ki [3] [nM] | AUC(0-t) at 6 h [4] [ng·h/mL] | SMILES | IC50 [1] [nM] | inhibition at 5 ug/ml [2] [%] |
| --- | --- | --- | --- | --- |
| – | – | CN1CCN(CCCN(C(=O)Nc2ccc(F)c(C(F)(F)F)c2)[C@@H]2CC[C@]3(c4ccc(C#N)cc4)C[C@H]23)CC1 | 52 | 86 |
| – | – | CN1CCN(CCCN(C(=O)Nc2ccc(F)c(C(F)(F)F)c2)[C@@H]2CC[C@]3(c4ccc5c(N)noc5c4)C[C@H]23)CC1 | 690 | 26 |
| 2.7 | – | COc1cccc([C@]23CC[C@@H](N(CCCN4CCN(C)CC4)C(=O)Nc4ccc(F)c(Cl)c4)[C@H]2C3)c1 | – | 70 |
| – | – | CN1CCN(CCCN(C(=O)Nc2ccc(F)c(C(F)(F)F)c2)[C@@H]2CC[C@]3(c4ccc(=O)[nH]c4)C[C@H]23)CC1 | – | 9 |
| – | – | CC(=O)Nc1ccc([C@]23CC[C@@H](N(CCCN4CCN(C)CC4)C(=O)Nc4ccc(F)c(Cl)c4)[C@H]2C3)cc1 | – | 18 |
| – | – | CNC(=O)c1ccc([C@]23CC[C@@H](N(CCCN4CCN(C)CC4)C(=O)Nc4ccc(F)c(C(F)(F)F)c4)[C@H]2C3)cc1 | – | 25 |
| – | – | CN1CCN(CCCN(C(=O)Nc2ccc(F)c(Cl)c2)[C@@H]2CC[C@]3(c4cccc(N5CCCC5=O)c4)C[C@H]23)CC1 | – | 14 |
| 6.8 | 634 | CN1CCN(CCCN(C(=O)Nc2ccc(F)c(Cl)c2)[C@@H]2CC[C@]3(c4cccc(NC(=O)C5CC5)c4)C[C@H]23)CC1 | – | 46 |
| 4.4 | – | CN1CCN(CCCN(C(=O)Nc2ccc(F)c(Cl)c2)[C@@H]2CC[C@]3(c4ccc(N)cc4)C[C@H]23)CC1 | – | 16 |
| – | – | CCC(=O)Nc1cccc([C@]23CC[C@@H](N(CCCN4CCN(C)CC4)C(=O)Nc4ccc(F)c(Cl)c4)[C@H]2C3)c1 | – | 34 |
| 15 | – | CN1CCN(CCCN(C(=O)Nc2ccc(F)c(C(F)(F)F)c2)[C@@H]2CC[C@]3(c4ccc5c(c4)CC(=O)N5)C[C@H]23)CC1 | – | 50 |
| 15.1 | 339 | CC(C)C(=O)Nc1cccc([C@]23CC[C@@H](N(CCCN4CCN(C)CC4)C(=O)Nc4ccc(F)c(Cl)c4)[C@H]2C3)c1 | – | 37 |
| – | – | CN1CCN(CCCN(C(=O)Nc2ccc(F)c(Cl)c2)[C@@H]2CC[C@]3(c4ccc(NC(=O)OC(C)(C)C)cc4)C[C@H]23)CC1 | – | 87 |
| 28 | 127 | CCNC(=O)Nc1cccc([C@]23CC[C@@H](N(CCCN4CCN(C)CC4)C(=O)Nc4ccc(F)c(Cl)c4)[C@H]2C3)c1 | – | 17 |
| – | – | CN1CCN(CCCN(C(=O)Nc2ccc(F)c(Cl)c2)[C@@H]2CC[C@]3(c4cccc(N5CCC5)c4)C[C@H]23)CC1 | – | 29 |
| – | – | COc1ccc([C@]23CC[C@@H](N(CCCN4CCN(C)CC4)C(=O)Nc4ccc(F)c(C(F)(F)F)c4)[C@H]2C3)cn1 | – | 36 |
| 46 | – | CN1CCN(CCCN(C(=O)Nc2ccc(F)c(C(F)(F)F)c2)[C@@H]2CC[C@]3(c4ccc5onc(N)c5c4)C[C@H]23)CC1 | – | 46 |
| – | – | CN1CCN(CCCN(C(=O)Nc2ccc(F)c(Cl)c2)[C@@H]2CC[C@]3(c4ccc(F)cc4)C[C@H]23)CC1 | – | 87 |
| – | – | CN1CCN(CCCN(C(=O)Nc2ccc(F)c(C(F)(F)F)c2)[C@@H]2CC[C@]3(c4ccc(S(C)(=O)=O)cc4)C[C@H]23)CC1 | – | 46 |
| – | – | CN1CCN(CCCN(C(=O)Nc2ccc(F)c(Cl)c2)[C@@H]2CC[C@]3(c4ccccc4)C[C@H]23)CC1 | – | 58 |
| 9.6 | – | CN1CCN(CCCN(C(=O)Nc2ccc(F)c(Cl)c2)[C@@H]2CC[C@]3(c4cccc(N)c4)C[C@H]23)CC1 | – | 25 |
| – | – | CC(=O)Nc1cccc([C@]23CC[C@@H](N(CCCN4CCN(C)CC4)C(=O)Nc4ccc(F)c(Cl)c4)[C@H]2C3)c1 | – | 19 |
| – | – | CN1CCN(CCCN(C(=O)Nc2ccc(F)c(C(F)(F)F)c2)[C@@H]2CC[C@]3(c4nccs4)C[C@H]23)CC1 | – | 27 |
| – | – | CN1CCN(CCCN(C(=O)Nc2ccc(F)c(C(F)(F)F)c2)[C@@H]2CC[C@]3(c4ccsc4)C[C@H]23)CC1 | – | 75 |
| – | – | CN1CCN(CCCN(C(=O)Nc2ccc(F)c(Cl)c2)[C@@H]2CC[C@]3(c4cccnc4)C[C@H]23)CC1 | – | 97 |
| – | – | CN1CCN(CCCN(C(=O)Nc2ccc(F)c(Cl)c2)[C@@H]2CC[C@]3(c4cccc(NC(=O)C(C)(C)C)c4)C[C@H]23)CC1 | – | 27 |
| – | – | COC(=O)c1ccc([C@]23CC[C@@H](N(CCCN4CCN(C)CC4)C(=O)Nc4ccc(F)c(C(F)(F)F)c4)[C@H]2C3)cc1 (single isomer, unassigned) | – | 63 |
